Measured values as given in patent publication US5744492A, “Method for inhibiting angiogenesis” (United States of America, priority 1994, dated 1998).

Columns and labels:
[1] = test system: chick chorioallantoic membrane; test: Chick chorioallantoic membrane (CAM) angiogenesis assay; format: in vivo
Description: The chick chorioallantoic or yolk sac membrane (CAM) assays for angiogenesis are important in vivo models of microvessel formation. […] Briefly, fertilized chick embryos with the yolk intact were removed from their shells on day 3 of development and incubated at 37° C.

MMP-2 = test: Northern blot analysis of MMP-2 expression in HUVECs; format: cell-based, human; conditions: bFGF 10 ng/mL alone, 24 hr
Description: (§1) Human umbilical vein endothelial cells (H 930) were generously supplied by Dr. Tom Maciag, American Red Cross (Gaithersburg, Md., USA) and were used between passages 9 and 14 to avoid senescence. HUVECs were grown on fibronectin-coated tissue culture plastic (200 μg/150 mm dish) in complete medium (Medium 199 (M-199) containing 5 U/mL preservative-free heparin, 25.5 μg/mL ECGS, 10% fetal bovine serum and 100 U/mL penicillin, 100 μg/mL streptomycin, and 0.25 μg/mL fungizone).
(§2) HUVECs were grown to confluence as described. Fresh complete medium with test compounds was added to confluent cells for an additional 24 hr incubation. bFGF (10 ng/mL), and/or compound 1 (10 μM) or DMSO control (0.1%) were added as indicated below. Total RNA was isolated by the guanidine isothiocyanate/CsCl method. Aliquots of RNA (7.5 μg) were separated on 1% agarose/formaldehyde gels, passively transferred to GeneScreen Plus membrane in 20X SSC, then cross-linked with ultraviolet light. Blots were prewashed for 1 hr at 42° C. in 1M NaCl, 10 mM Tris, 1 mM EDTA, 0.1% SDS and then hybridized overnight at 42° C. with a formamide-containing buffer (hybridization buffer final: 50% formamide, 4X SSC, 10 mM Tris pH 7.5, IX Denhardt solution, 0.2% SDS, 125 μg/ml salmon sperm DNA) with a random-primed 300 bp insert for MMP-2 (gift of Dr. William Stetler-Stevenson, Laboratory of Pathology, NCI). Blots were washed under stringent conditions then exposed to film. After removal of MMP-2 probe, blots were rehybridized with β-actin probe for quantitation of the RNA load. Results were quantitated by densitometric evaluation of the autoradiographs.
(§3) Lane 1 corresponds to the mRNA from HUVECs treated with DMSO (control). Lanes 2-4 show the mRNA isolated from HUVECs treated with compound 1 (10 μM) alone, compound 1 (10 μM) and bFGF (10 ng/mL), bFGF (10 ng/mL) alone, respectively.

β-actin = test: Northern blot, β-actin probe for quantitation of RNA load in HUVECs; format: cell-based, human; conditions: bFGF 10 ng/mL alone, 24 hr
Description: as §1, §2, §3

[2] = positive control, 60μ (text: 60 μg)

Compound: NC(=O)c1nc[nH]c1N [AIC, aminoimidazole carboxamide, reference compound]
- % Inhibition (capillary formation in vivo) ([1]; 10 μM, 48 hr): 16%
- Eggs with avascular zones/total ([1]; 10 μM, 48 hr): 4/24
- angiogenesis inhibitory effect (in words) ([1]; 10 or 20 μM, 48 hr): inactive

Compound: C[C@]12CCC(=O)C=C1CC[C@@H]1[C@@H]2[C@@H](O)C[C@@]2(C)[C@H]1CC[C@]2(O)C(=O)CO [Hydrocortisone, hydrocortisone, reference compound]
- % Inhibition (capillary formation in vivo) [1, 2]: 55%
- Eggs with avascular zones/total [1, 2]: 10/18

Compound: bFGF: Recombinant basic fibroblast growth factor (bFGF)
- Corrected values (MMP-2 mRNA corrected for loading) (MMP-2): 0.37
- MMP-2 (densitometer) (MMP-2): 77 Densitometer units
- β-actin (densitometer) (β-actin): 205 Densitometer units
